Measurements as given in BindingDB's records for doi:10.1124/jpet.102.045674 (Pudue Pharma Discovery Research, 2003).

How the values were obtained:
[1] = biological target: Type-1 angiotensin II receptor A (Rattus norvegicus, UniProt P25095)
[2] = biological target: Androgen receptor (Rattus norvegicus) (UniProt P15207)
[3] = biological target: Thyrotropin-releasing hormone receptor (Rattus norvegicus) (UniProt Q01717)
[4] = biological target: Glycine receptor subunit alpha-1 (Rattus norvegicus, UniProt P07727)
[5] = biological target: Glutamate receptor ionotropic, kainate 1 (Rattus norvegicus, UniProt P22756)
Oxytocin receptor = Oxytocin receptor (Rattus norvegicus, UniProt P70536)
Thromboxane A2 receptor = Thromboxane A2 receptor (Rattus norvegicus, UniProt P34978)
D(1A) dopamine receptor = D(1A) dopamine receptor (Rattus norvegicus, UniProt P18901)
[6] = biological target: Amine oxidase [flavin-containing] B (Rattus norvegicus, UniProt P19643)
B2 bradykinin receptor = B2 bradykinin receptor (Rattus norvegicus, UniProt P25023)
[7] = biological target: Vasopressin V1a receptor (Rattus norvegicus) (UniProt P30560)
[8] = biological target: Beta-2 adrenergic receptor (Rattus norvegicus, UniProt P10608)
[9] = biological target: Type-2 angiotensin II receptor (Rattus norvegicus, UniProt P35351)
[10] = biological target: Sodium channel protein type 1 subunit alpha (Rattus norvegicus, UniProt P04774)
Endothelin-1 receptor = Endothelin-1 receptor (Rattus norvegicus, UniProt P26684)
Chain of Endothelin-1 receptor (P26684 whole entry): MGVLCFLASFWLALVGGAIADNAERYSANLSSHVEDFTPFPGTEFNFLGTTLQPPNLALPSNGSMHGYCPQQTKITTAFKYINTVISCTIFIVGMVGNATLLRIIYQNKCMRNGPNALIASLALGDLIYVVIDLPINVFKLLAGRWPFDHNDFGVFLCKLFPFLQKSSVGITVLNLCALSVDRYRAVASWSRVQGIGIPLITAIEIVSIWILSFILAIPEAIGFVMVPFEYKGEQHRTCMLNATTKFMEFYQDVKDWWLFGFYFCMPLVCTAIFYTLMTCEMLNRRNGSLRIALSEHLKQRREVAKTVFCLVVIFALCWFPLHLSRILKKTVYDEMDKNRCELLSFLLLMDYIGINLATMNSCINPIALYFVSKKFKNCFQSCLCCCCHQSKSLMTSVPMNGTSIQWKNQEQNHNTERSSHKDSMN

[11] = biological target: Nitric oxide synthase, brain (Rattus norvegicus, UniProt P29476)
Chain of Nitric oxide synthase, brain (P29476 whole entry): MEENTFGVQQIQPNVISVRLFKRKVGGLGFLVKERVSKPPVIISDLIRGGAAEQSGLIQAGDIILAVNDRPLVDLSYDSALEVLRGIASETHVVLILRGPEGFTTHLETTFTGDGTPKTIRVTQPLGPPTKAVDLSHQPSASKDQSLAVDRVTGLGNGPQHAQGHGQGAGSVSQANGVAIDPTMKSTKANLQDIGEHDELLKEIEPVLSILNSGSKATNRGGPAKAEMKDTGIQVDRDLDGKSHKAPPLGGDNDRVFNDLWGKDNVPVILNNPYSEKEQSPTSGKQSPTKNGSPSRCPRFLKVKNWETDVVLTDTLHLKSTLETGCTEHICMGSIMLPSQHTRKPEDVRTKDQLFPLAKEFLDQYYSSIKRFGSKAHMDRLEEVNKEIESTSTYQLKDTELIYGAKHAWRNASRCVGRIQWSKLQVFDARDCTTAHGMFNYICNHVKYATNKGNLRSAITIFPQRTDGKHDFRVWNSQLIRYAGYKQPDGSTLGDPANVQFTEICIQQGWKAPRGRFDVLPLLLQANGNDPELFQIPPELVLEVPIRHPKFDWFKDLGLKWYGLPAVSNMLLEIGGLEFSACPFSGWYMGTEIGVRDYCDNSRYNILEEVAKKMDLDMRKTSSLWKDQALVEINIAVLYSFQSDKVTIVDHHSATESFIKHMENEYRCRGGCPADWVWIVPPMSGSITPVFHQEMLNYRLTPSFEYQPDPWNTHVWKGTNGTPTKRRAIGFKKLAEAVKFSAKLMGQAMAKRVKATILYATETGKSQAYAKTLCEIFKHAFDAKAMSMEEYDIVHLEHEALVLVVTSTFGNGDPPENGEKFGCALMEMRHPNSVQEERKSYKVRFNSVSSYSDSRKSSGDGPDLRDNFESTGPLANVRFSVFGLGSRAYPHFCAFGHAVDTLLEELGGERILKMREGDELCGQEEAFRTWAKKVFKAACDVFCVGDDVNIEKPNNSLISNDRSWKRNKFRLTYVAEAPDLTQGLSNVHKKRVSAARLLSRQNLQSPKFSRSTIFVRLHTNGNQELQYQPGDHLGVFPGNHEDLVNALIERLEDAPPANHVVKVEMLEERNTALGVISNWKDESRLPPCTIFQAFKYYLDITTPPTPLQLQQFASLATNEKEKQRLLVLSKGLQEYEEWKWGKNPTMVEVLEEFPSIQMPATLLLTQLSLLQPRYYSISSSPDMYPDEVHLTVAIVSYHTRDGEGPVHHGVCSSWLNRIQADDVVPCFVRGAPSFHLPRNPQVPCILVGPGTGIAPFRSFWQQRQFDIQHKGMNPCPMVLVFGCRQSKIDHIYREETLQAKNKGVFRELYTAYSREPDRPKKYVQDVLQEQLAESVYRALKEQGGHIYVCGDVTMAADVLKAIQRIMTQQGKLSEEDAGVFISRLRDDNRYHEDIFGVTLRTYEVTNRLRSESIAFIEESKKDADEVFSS

[12] = biological target: Sodium-dependent dopamine transporter (Rattus norvegicus, UniProt P23977)
[13] = biological target: Corticotropin releasing factor receptor (Rattus norvegicus) (UniProt P35353)
[14] = biological target: Glutamate decarboxylase 2 (Rattus norvegicus, UniProt Q05683)
[15] = biological target: Choline O-acetyltransferase (Rattus norvegicus, UniProt P32738)
[16] = biological target: Muscarinic acetylcholine receptor M1 (Rattus norvegicus, UniProt P08482)
Substance-K receptor = Substance-K receptor (Rattus norvegicus, UniProt P16610)
[17] = biological target: Small conductance calcium-activated potassium channel protein 1 (Rattus norvegicus, UniProt P70606)
Chain of Small conductance calcium-activated potassium channel protein 1 (P70606 whole entry): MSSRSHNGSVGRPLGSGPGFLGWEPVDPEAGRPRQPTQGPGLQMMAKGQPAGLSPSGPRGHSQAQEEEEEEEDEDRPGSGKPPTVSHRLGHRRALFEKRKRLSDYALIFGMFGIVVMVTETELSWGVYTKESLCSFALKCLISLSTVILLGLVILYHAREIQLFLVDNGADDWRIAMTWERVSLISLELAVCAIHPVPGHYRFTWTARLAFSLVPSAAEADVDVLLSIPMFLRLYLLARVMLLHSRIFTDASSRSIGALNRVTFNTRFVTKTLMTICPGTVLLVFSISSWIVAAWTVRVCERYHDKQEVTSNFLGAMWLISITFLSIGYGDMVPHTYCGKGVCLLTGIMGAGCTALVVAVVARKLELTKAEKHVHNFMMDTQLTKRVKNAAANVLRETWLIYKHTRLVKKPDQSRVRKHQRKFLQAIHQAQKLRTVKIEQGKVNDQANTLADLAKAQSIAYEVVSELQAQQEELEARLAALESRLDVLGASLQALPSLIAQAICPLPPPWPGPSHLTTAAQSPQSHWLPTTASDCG

Hrh3 protein = Hrh3 protein (Rattus norvegicus, UniProt Q5PPG3)
[18] = biological target: ATP-sensitive inward rectifier potassium channel 1 (Rattus norvegicus, UniProt P35560)
[19] = biological target: Leukotriene B4 receptor 1 (Rattus norvegicus, UniProt Q9R0Q2)
Histamine H2 receptor = Histamine H2 receptor (Rattus norvegicus, UniProt P25102)
[20] = biological target: Norepinephrine transporter (Rattus norvegicus, UniProt Q9JIA2)
[21] = biological target: Cysteinyl leukotriene receptor 1 (Rattus norvegicus, UniProt Q924T8)
[22] = biological target: Alpha-2C adrenergic receptor (Rattus norvegicus, UniProt P22086)
Chain of Alpha-2C adrenergic receptor (P22086 whole entry): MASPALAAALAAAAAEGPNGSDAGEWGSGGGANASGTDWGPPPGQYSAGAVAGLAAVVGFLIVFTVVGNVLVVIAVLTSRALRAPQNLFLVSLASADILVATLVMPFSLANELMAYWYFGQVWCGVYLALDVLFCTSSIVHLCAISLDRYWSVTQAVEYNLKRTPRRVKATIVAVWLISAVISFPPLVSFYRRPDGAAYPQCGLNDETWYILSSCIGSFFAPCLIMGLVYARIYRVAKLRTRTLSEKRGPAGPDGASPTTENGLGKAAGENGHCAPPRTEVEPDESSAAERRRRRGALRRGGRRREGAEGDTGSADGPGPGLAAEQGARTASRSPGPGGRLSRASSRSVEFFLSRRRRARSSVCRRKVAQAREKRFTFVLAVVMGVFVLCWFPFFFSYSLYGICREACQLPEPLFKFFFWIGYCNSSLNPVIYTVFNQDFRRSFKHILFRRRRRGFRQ

[23] = biological target: Nicotinic acetylcholine receptor (Rattus leucopus, UniProt Q62594)
Chain of Nicotinic acetylcholine receptor (Q62594 whole entry): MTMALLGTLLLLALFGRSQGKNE

[24] = biological target: Alpha-1A adrenergic receptor (Rattus norvegicus, UniProt P43140)
Chain of Alpha-1A adrenergic receptor (P43140 whole entry): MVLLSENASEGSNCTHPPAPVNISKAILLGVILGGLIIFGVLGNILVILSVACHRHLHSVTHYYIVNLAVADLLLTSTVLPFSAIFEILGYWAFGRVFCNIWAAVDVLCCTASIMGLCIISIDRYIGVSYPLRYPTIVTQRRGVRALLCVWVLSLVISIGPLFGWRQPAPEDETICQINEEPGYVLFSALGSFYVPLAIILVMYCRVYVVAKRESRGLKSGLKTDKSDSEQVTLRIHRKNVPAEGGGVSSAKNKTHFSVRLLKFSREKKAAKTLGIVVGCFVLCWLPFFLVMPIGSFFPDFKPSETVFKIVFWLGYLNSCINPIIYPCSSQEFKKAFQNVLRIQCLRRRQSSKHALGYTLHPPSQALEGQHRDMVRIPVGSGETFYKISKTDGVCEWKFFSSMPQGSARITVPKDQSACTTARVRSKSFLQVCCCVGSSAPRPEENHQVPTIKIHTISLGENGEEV

[25] = biological target: Sodium channel protein type 2 subunit alpha (Rattus norvegicus, UniProt P04775)
[26] = biological target: Melatonin receptor type 1A (Rattus norvegicus, UniProt P49218)
Chain of Melatonin receptor type 1A (P49218 whole entry): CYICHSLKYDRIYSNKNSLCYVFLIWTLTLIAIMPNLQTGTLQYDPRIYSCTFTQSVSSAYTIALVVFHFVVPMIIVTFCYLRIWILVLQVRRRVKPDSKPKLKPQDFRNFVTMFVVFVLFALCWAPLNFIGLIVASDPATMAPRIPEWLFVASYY

[27] = biological target: Gamma-aminobutyric acid receptor subunit alpha-1 (Rattus norvegicus, UniProt P62813)
[28] = biological target: Gamma-aminobutyric acid (GABA) B receptor 1 (Rattus norvegicus, UniProt Q6MFX8)
Chain of Gamma-aminobutyric acid (GABA) B receptor 1 (Q6MFX8 whole entry): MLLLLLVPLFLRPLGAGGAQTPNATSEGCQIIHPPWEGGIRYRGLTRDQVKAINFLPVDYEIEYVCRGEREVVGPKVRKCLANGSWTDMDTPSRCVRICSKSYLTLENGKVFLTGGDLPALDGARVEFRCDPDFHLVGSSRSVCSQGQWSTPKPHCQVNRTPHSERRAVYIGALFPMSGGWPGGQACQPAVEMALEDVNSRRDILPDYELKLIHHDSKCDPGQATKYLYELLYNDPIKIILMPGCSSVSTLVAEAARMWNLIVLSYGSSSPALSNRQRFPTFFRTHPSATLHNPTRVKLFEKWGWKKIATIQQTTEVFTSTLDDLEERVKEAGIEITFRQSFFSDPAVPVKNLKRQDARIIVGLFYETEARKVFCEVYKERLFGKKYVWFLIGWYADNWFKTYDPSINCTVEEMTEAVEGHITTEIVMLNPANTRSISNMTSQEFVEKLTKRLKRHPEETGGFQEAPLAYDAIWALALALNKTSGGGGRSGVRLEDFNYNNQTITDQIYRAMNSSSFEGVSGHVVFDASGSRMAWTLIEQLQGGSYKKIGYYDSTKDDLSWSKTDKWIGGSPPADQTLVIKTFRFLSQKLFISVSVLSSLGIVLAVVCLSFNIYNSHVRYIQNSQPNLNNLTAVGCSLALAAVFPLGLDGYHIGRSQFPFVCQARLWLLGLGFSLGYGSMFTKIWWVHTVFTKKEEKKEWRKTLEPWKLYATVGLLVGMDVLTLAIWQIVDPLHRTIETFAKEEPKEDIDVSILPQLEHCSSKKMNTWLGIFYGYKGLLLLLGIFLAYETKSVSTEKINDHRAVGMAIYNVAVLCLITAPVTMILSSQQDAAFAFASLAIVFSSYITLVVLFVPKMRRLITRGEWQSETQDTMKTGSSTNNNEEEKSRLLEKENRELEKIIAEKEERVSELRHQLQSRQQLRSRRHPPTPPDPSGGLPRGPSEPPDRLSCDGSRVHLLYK

[29] = biological target: Muscarinic acetylcholine receptor M2 (Rattus norvegicus, UniProt P10980)
[30] = biological target: Platelet-activating factor receptor (Rattus norvegicus, UniProt P46002)
Estrogen receptor = Estrogen receptor (Rattus norvegicus, UniProt P06211)
Substance-P receptor = Substance-P receptor (Rattus norvegicus, UniProt P14600)
Chain of Substance-P receptor (P14600 whole entry): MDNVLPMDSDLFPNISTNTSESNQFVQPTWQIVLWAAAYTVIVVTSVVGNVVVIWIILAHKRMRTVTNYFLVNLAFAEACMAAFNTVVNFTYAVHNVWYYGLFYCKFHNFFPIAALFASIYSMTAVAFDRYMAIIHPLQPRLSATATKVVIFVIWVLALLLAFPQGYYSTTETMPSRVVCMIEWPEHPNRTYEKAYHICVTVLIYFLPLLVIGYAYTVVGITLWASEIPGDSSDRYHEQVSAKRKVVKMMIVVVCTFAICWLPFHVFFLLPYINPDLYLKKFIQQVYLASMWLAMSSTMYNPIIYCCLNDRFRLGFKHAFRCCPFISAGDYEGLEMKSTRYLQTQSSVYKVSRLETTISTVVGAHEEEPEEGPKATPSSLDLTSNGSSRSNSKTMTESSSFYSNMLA

Measured: Ki

CC(C)(C)c1ccc(NC(=O)N2CCN(c3ncccc3Cl)CC2)cc1 [BCTC]
> 10 µM: all assays above
